In patent US20050277664A1, “Monoamine neurotransmitter re-uptake inhibitor for the inhibition of beta-amyloid generation” (Boehringer Ingelheim International GmbH, priority 2004, published 2005):
Read-outs that look alike come from different tables or passages of the source.

Tests used:
[1] = system: cerebral Aβ40 levels in APPtg mice; assay: Cerebral Aβ40 levels in APPtg mice after oral treatment; type: in vivo; conditions: for Level of Aβ40, reduction (−) and/or stimulation (+) of cerebral Aβ levels: per os
Experimental: (§1) APPtg mice at 3 to 4 months of age were used. A compound of formula (IA) was prepared and administered in a suspension of 0.5% Tylose solution.
(§2) Controls were treated with Tylose only. Each group consisted of 12 or 13 mice with equal numbers of each sex. In the short term study, the animals were treated for the time period of 2.5 days. Twice a day, a dose of 3 mg/kg was applied with interruption times of 11.5-12.5 hours. On the last day (day of sacrifice), one dose of 3 mg/kg was administered and the mice were sacrificed 5.5 hours later. […] In a second long term four weeks study, 3 mg/kg/day of compound of formula IA were administered, subdivided into two subdoses, with an interruption time of 10-12 hours during the day. Each version of the in vivo experiments has been performed once.
(§3) The murine brains were rapidly removed from the skull and divided along the medial fissure. The cerebellum was removed before each half was quickly frozen down on a metal plate that had been cooled down on dry ice. Brains were placed in Eppendorf tubes, frozen in liquid nitrogen, and stored at −80° C. until needed for Aβ extractions or compound measurements.
(§4) Brains were thawed on ice. Mouse hemibrains were extracted in a homogenisation buffer consisting of 20 mM Tris (pH 8.5), 0.2% Triton X-100, and complete proteinase inhibitor with EDTA (Roche Diagnostics GmbH, Mannheim, Germany). The brains were homogenized in a volume […] 5 times the weight of the brain (mg) using a 2 ml Douncer Homogenator (B. Braun, Melsungen, Germany). This was carried out 12 times with a Stempel L, followed by a Stempel S. The homogenates were then ultracentrifuged in Ultracentrifuge tubes (Beckman, CA, USA) at 200.000 g (UZ Sorvall RC 120 GX, KENDRO Laboratories Products GmbH, Hanau, Germany) at 4° C. for 1 hour. The post nuclear supernatants containing the soluble Aβ were collected and measured in a Sandwich ELISA (s.a.).
(§5) Statistical analyses of data was done by one-sided t tests for differences between treatment and control group to determine the p values.

[2] = system: Aβ40 secretion by U373 astrocytoma cells expressing human wtAPP695; assay: Aβ secretion assay, Aβ40 (sandwich ELISA of cell supernatant); type: cell-based; conditions: for inhibition at 1.56 µM / inhibition at 3.12 µM / inhibition at 6.25 µM / inhibition at 12.5 µM / inhibition at 25 µM / inhibition at 50 µM: Homo sapiens, U373 MG, 4 h, read-out: Aβ40 Secretion, inhibition (−) or stimulation (+); for generation/secretion of Aβ40 (result in words): dose response
Experimental: (§6) Cell culture and drug treatment: U373 astrocytoma cells expressing human wtAPP695 were used to test the compound of formula IA for Aβ lowering potential. Cells were cultured in 96 well plates in DMEM medium, additionally supplemented with 10% FCS and 1% glutamine, until they have grown to a confluent cell layer. The cells were then incubated for 17 hours in the presence of the compound of formula IA in DMEM medium. Afterwards, 100 μl of the supernatant had been removed and measured with the ELISA as described below to determine the Aβ42 peptide concentrations. The cells were washed, incubated again for 4 hours with the compound, before measuring the Aβ40 levels. AlamarBlue assays (Serotec, Oxford, UK) were conducted to determine cytotoxicity.
(§7) Monoclonal 6E10 against Aβ1-17 (Signet Laboratories, Inc., Dedham, Mass., USA) was used to capture Aβ40; SGY 3160 against Aβ1-16 (Mayo Medical Ventures, Rochester, Minn., USA) to capture Aβ42. Both antibodies were diluted in PBS at a concentration of 8 μg/ml to coat a 96 well plate. Blocking was completed with 1% Block ACE (blocking reagent) (Dainippon Seiyaku, Asaka, Japan) in PBS for 2 hrs. The plates were then washed with PBST and the cell supernatants, diluted 1:1.5 in EC buffer (0.1 M NaH2PO4, 0.1 M Na2HPO4, 2 mM EDTA, 0.4 M NaCl, 0.2% BSA, 0.05% CHAPS, 0.4% Block ACE, 0.05% NaN3 pH 7.0) have been added into the wells, before the plates were stored at 4° C. over night. Detector antibodies (alkaline phosphatase-coupled ROβ40 and ROβ42 against Aβ40 and Aβ42, respectively), were loaded onto the wells at 0.1 μg/ml in ACE Block for 2 hrs. The reporter system used was the Tropix ELISA-Light chemiluminescent detection system (Applied Biosystems (Tropix), Bedford, Mass., USA).
(§8) The compound of formula IA has been tested in an Aβ secretion assay. In this particular in vitro assay, the astrocytoma cell line U373 that stably over-expresses wild-type human amyloid precursor protein (APP) has been exposed to this compound. APP is proteolytically cleaved by 2 enzymes, BACE and γ secretase, to generate the Aβ peptides. Because of a flexible APP cleavage site of γ secretase, several Aβ isoforms are generated, majorly Aβ40 and Aβ42. The rate of Aβ generation/secretion into the medium in the presence or absence of the compound of formula IA in different concentrations has been measured by ELISA (Table 1). The % inhibition (−) or stimulation (+) has been determined in 2 independent experiments.

[3] = system: Aβ42 secretion by U373 astrocytoma cells expressing human wtAPP695; assay: Aβ secretion assay, Aβ42 (sandwich ELISA of cell supernatant); type: cell-based; conditions: for inhibition at 1.56 µM / inhibition at 3.12 µM / inhibition at 6.25 µM / inhibition at 12.5 µM / inhibition at 25 µM / inhibition at 50 µM: Homo sapiens, U373 MG, 17 h, read-out: Aβ42 Secretion, inhibition (−) or stimulation (+); for generation/secretion of Aβ42 (result in words): dose response
Experimental: as §6, §7, §8

[4] = system: cerebral Aβ42 levels in APPtg mice; assay: Cerebral Aβ42 levels in APPtg mice after oral treatment; type: in vivo; conditions: for Level of Aβ42, reduction (−) and/or stimulation (+) of cerebral Aβ levels: per os
Experimental: as §1, §2, §3, §4, §5

[5] = Exp. 1, further 4 hours incubation
[6] = Exp. 2, further 4 hours incubation

CCOC[C@H]1C2CCC(C[C@@H]1c1ccc(Cl)c(Cl)c1)N2C (some centres unmarked) [Formula IA]
Level of Aβ40, reduction (−) and/or stimulation (+) of cerebral Aβ levels ([1]; APPtg mice, 2 weeks, 1 × 3.0 mg/kg/day, mean ± SEM): −18.6 ± 7.1 % | Level of Aβ40, reduction (−) and/or stimulation (+) of cerebral Aβ levels ([1]; APPtg mice, 4 weeks, 2 × 1.5 mg/kg/day, mean ± two-sided confidence interval): −17.2 ± 8.7° % | Level of Aβ40, reduction (−) and/or stimulation (+) of cerebral Aβ levels ([1]; APPtg mice, 2.5 days, 2 × 3.0 mg/kg day 1, 2, 1 × 3.0 mg/kg day 3, mean ± SEM vs Tylose control): −12.4 ± 1.9 % | reduction of Aβ40 ([1]; four weeks study, 3 mg/kg/day in two subdoses, APPtg mice): 17.2% | Aβ40 levels in vivo (result in words) ([1]; in vivo test, FIG. 3 (short term experiment)): statistically significant reduction | reduction of the Aβ40 levels ([1]; short term in vivo experiment (2.5 days, 3 mg/kg twice a day), APPtg mice, p=0.0003): 12.4% | reduction of the cerebral Aβ40 levels ([1]; two weeks treatment, 3 mg/kg once a day, APPtg mice, p=0.024): 18.6% | inhibition at 1.56 µM [2, 5]: 3.2% | inhibition at 1.56 µM [2, 6]: -16% | inhibition at 3.12 µM [2, 5]: 6.1% | inhibition at 3.12 µM [2, 6]: -8% | inhibition at 6.25 µM [2, 5]: 20.9% | inhibition at 6.25 µM [2, 6]: 2.8% | inhibition at 12.5 µM [2, 5]: 33.9% | inhibition at 12.5 µM [2, 6]: 24.8% | inhibition at 25 µM [2, 5]: 50.1% | inhibition at 25 µM [2, 6]: 50.3% | inhibition at 50 µM [2, 5]: 81.3% | inhibition at 50 µM [2, 6]: 88.5% | generation/secretion of Aβ40 (result in words) ([2]; FIG. 1): increasing inhibition of Aβ40 with an increasing concentration | generation/secretion of Aβ40 (result in words) ([2]; FIG. 1, listed as formula 1A): inhibited | inhibition at 1.56 µM ([3]; Exp. 1, 17 hours incubation): 3.5% | inhibition at 1.56 µM ([3]; Exp. 2, 17 hours incubation): -4.5% | inhibition at 3.12 µM ([3]; Exp. 1, 17 hours incubation): 6.5% | inhibition at 3.12 µM ([3]; Exp. 2, 17 hours incubation): -16.1% | inhibition at 6.25 µM ([3]; Exp. 1, 17 hours incubation): 4.1% | inhibition at 6.25 µM ([3]; Exp. 2, 17 hours incubation): 12.1% | inhibition at 12.5 µM ([3]; Exp. 1, 17 hours incubation): 17.8% | inhibition at 12.5 µM ([3]; Exp. 2, 17 hours incubation): 23.2% | inhibition at 25 µM ([3]; Exp. 1, 17 hours incubation): 24.5% | inhibition at 25 µM ([3]; Exp. 2, 17 hours incubation): 48.9% | inhibition at 50 µM ([3]; Exp. 1, 17 hours incubation): 26.6% | inhibition at 50 µM ([3]; Exp. 2, 17 hours incubation): 62.3% | generation/secretion of Aβ42 (result in words) ([3]; FIG. 2): increasing inhibition of Aβ42 with an increasing concentration | generation/secretion of Aβ42 (result in words) ([3]; FIG. 2, listed as formula 1A): inhibited | reduction for Aβ42 ([4]; four weeks study, 3 mg/kg/day in two subdoses): 27.4% | Level of Aβ42, reduction (−) and/or stimulation (+) of cerebral Aβ levels ([4]; 2 weeks, 1 × 3.0 mg/kg/day, mean ± SEM): −16.3 ± 3.7 % | Level of Aβ42, reduction (−) and/or stimulation (+) of cerebral Aβ levels ([4]; 4 weeks, 2 × 1.5 mg/kg/day, mean ± two-sided confidence interval): −27.4 ± 27.2° % | Level of Aβ42, reduction (−) and/or stimulation (+) of cerebral Aβ levels ([4]; 2.5 days, 2 × 3.0 mg/kg day 1, 2, 1 × 3.0 mg/kg day 3, mean ± SEM vs Tylose control): +5.1 ± 3.0% | increase of Aβ42 levels ([4]; short term in vivo experiment (2.5 days, 3 mg/kg twice a day), p=0.9136): 5.1% | reduction of the cerebral Aβ42 levels ([4]; two weeks treatment, 3 mg/kg once a day, p=0.0096): 16.3%
